# From US20080009418A1, “Selective Inhibitors” (Alchemia LTD., priority 2004, published 2008)
# Tests used:
# Human Melanocortin (MC3) = target: T1, Human Melanocortin (MC3) (Homo sapiens, UniProt P41968); experiment: Radioligand binding, human melanocortin MC3 membranes, FlashPlate, [125I]-NDP-αMSH; conditions: compound at 10 μM; [125I]-NDP-αMSH, FlashPlate
# T1 construct: purchased Perkin Elmer Biosignal
# Method in brief: (§1)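 Cloned human receptor membranes were coated onto FlashPlate wells and incubated with radioligand and compound (added from a 0.5 mM DMSO daughter plate) for 1 hour at room temperature in the dark. Scintillation counting gave percent inhibition, with DMSO defining total and reference ligand defining non-specific binding.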
# Human opioid (ORL1) = target: T2, Human opioid (ORL1) (Homo sapiens, UniProt P41146); experiment: Radioligand binding, human opioid ORL1 membranes, FlashPlate, [125I]-Nociceptin; conditions: compound at 10 μM; [125I]-Nociceptin, FlashPlate
# T2 construct: purchased Perkin Elmer Biosignal
# T2 sequence (P41146 whole entry): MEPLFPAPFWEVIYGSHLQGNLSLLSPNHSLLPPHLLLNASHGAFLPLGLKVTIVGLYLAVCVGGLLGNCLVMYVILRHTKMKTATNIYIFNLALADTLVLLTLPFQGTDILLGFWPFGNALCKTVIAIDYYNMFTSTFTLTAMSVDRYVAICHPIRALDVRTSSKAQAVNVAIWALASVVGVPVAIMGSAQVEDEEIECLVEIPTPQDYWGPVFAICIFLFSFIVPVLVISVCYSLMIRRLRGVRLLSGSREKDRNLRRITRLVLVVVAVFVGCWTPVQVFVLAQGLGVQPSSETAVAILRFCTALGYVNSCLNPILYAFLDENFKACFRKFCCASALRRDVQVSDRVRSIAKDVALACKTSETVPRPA
# Method in brief: as §1
# Human κ-Opioid (KOP) = target: T3, Human κ-Opioid (KOP) (Homo sapiens, UniProt P41145); experiment: Radioligand binding, human κ-opioid (KOP) membranes, filtration, [3H]-Diprenorphine; conditions: compound at 10 μM; [3H]-Diprenorphine, filtration
# T3 construct: purchased Perkin Elmer Biosignal
# T3 sequence (P41145 whole entry): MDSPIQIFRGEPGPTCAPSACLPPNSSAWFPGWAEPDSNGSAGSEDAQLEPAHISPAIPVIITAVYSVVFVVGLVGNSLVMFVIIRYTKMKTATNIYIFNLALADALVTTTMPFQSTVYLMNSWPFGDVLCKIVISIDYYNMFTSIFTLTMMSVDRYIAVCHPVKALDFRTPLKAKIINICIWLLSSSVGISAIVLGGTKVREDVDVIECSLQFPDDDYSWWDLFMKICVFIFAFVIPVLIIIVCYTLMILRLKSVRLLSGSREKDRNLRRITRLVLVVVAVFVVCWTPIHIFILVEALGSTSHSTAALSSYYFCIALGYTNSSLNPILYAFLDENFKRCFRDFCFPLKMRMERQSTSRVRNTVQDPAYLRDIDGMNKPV
# Method in brief: (§2)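 Filtration binding on cloned human receptor membranes (1 Unit/well), [125I]-Substance P for NK1 and [3H]-Diprenorphine for KOP, 1 h at room temperature. Filters PEI-presoaked, washed with cold 50 mM Tris-HCl pH 7.4, counted by scintillation; percent inhibition calculated, reference ligand defining non-specific binding.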
# [1] = target: T4, Human neuropeptide Y (NPY-Y1) (Homo sapiens, UniProt P25929); experiment: Radioligand binding, human neuropeptide Y NPY-Y1 membranes, FlashPlate, [125I]-PYY; conditions: compound at 10 μM; [125I]-PYY, FlashPlate
# T4 construct: purchased Perkin Elmer Biosignal
# T4 sequence (P25929 1-384): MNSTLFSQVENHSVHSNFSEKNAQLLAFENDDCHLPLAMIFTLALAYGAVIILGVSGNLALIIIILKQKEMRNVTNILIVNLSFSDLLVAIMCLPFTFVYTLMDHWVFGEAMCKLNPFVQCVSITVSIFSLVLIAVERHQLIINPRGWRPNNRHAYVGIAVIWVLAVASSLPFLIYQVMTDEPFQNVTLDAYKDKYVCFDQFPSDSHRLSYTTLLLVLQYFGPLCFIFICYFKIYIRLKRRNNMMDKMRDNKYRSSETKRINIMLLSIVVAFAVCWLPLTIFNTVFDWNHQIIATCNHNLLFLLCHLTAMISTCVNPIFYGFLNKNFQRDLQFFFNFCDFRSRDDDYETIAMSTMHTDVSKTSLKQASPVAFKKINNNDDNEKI
# Method in brief: as §1
# Human Melanocortin (MC4) = target: T5, Human Melanocortin (MC4) (Homo sapiens, UniProt P32245); experiment: Radioligand binding, human melanocortin MC4 membranes, FlashPlate, [125I]-NDP-αMSH; conditions: compound at 10 μM; [125I]-NDP-αMSH, FlashPlate
# T5 construct: purchased Perkin Elmer Biosignal
# T5 sequence (P32245 whole entry): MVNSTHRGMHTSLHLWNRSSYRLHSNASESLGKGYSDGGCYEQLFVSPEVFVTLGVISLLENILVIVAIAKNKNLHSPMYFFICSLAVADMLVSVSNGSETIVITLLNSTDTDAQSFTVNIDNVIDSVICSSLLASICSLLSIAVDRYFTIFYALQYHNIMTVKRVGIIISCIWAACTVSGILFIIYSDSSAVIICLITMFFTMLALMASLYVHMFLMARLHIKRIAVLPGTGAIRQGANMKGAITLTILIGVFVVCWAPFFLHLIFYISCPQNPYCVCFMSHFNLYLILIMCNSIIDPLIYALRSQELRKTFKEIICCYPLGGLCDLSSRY
# Method in brief: as §1
# Human melanocortin (MC5) = target: T6, Human melanocortin (MC5) (Homo sapiens, UniProt P33032); experiment: Radioligand binding, human melanocortin MC5 membranes, FlashPlate, [125I]-NDP-αMSH; conditions: compound at 10 μM; [125I]-NDP-αMSH, FlashPlate
# T6 construct: purchased Perkin Elmer Biosignal
# T6 sequence (P33032 whole entry): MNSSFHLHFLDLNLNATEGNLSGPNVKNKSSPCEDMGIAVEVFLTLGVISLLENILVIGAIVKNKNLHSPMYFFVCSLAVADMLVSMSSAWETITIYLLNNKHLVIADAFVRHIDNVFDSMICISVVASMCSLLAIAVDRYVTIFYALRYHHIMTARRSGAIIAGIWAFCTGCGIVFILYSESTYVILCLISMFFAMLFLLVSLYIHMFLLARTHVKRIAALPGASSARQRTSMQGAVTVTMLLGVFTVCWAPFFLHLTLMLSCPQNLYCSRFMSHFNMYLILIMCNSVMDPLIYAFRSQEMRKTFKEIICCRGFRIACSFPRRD
# Method in brief: as §1
# Mouse urotensin (mUR2) = target: T7, Mouse urotensin (mUR2) (Mus musculus, UniProt Q8VIH9); experiment: Radioligand binding, mouse urotensin mUR2 membranes, FlashPlate, [125I]-Urotensin II; conditions: compound at 10 μM; [125I]-Urotensin II, FlashPlate
# T7 construct: purchased Perkin Elmer Biosignal
# T7 sequence (Q8VIH9 1-385): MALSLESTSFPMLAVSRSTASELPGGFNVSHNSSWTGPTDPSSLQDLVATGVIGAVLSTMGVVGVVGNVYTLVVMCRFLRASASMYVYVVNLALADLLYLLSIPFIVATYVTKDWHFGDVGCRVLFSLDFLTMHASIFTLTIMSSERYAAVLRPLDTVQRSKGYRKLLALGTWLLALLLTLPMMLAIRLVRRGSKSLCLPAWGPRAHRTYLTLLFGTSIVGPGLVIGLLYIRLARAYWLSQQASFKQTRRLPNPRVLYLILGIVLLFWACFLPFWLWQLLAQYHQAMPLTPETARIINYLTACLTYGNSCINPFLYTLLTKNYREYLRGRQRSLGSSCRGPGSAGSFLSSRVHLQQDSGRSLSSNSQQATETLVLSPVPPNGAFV
# Method in brief: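 Cloned mouse urotensin (mUR2) receptor membranes from Perkin Elmer Biosignal were immobilized in FlashPlate microplates using a proprietary coating. Each well got 19.5 μl buffer, then 0.5 μl of DMSO, reference ligand, or compound. Adding 5 μl of [125I]-Urotensin II, diluted to 5× final concentration in binding buffer, started binding. Plates were sealed with TopSeal-A and incubated 1 hour at room temperature in the dark. Wells were counted for 30 seconds each on a TopCount after a 60-second delay, and percentage inhibition was calculated.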
# Human neurokinin (NK1) = target: T8, Human neurokinin (NK1) (Homo sapiens, UniProt P25103); experiment: Radioligand binding, human neurokinin NK1 membranes, filtration, [125I]-Substance P; conditions: compound at 10 μM; [125I]-Substance P, filtration
# T8 construct: purchased Perkin Elmer Biosignal
# T8 sequence (P25103 whole entry): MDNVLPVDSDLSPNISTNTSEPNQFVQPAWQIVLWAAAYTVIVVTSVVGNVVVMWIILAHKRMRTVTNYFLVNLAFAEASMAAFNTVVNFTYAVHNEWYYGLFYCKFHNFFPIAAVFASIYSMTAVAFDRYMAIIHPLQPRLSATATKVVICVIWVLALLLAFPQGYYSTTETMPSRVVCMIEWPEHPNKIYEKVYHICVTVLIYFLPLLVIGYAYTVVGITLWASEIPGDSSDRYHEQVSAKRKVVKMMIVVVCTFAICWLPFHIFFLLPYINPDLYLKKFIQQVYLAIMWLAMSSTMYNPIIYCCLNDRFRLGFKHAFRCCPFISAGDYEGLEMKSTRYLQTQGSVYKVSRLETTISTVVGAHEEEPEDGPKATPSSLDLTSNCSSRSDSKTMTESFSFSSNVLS
# Method in brief: as §2
# Human μ-opioid (MOP) = target: T9, Human μ-opioid (MOP) (Homo sapiens, UniProt P35372); experiment: Radioligand binding, human μ-opioid (MOP) membranes, FlashPlate, [3H]-Naloxone; conditions: compound at 10 μM; [3H]-Naloxone, FlashPlate
# T9 construct: purchased Perkin Elmer Biosignal
# T9 sequence (P35372 whole entry): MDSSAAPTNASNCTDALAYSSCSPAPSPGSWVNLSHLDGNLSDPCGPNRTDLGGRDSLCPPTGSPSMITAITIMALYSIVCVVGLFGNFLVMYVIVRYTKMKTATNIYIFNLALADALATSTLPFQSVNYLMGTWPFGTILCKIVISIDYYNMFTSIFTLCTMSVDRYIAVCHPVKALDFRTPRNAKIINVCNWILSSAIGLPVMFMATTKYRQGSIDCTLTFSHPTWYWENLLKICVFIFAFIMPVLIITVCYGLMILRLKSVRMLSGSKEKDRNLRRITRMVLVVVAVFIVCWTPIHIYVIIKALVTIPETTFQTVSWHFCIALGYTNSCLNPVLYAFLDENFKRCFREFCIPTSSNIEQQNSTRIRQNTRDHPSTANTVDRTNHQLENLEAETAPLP
# Method in brief: as §1
# Human δ-opioid (DOP) = target: T10, Human δ-opioid (DOP) (Homo sapiens, UniProt P41143); experiment: Radioligand binding, human δ-opioid (DOP) membranes, FlashPlate, [3H]-Bremazocine; conditions: compound at 10 μM; [3H]-Bremazocine, FlashPlate
# T10 construct: purchased Perkin Elmer Biosignal
# T10 sequence (P41143 whole entry): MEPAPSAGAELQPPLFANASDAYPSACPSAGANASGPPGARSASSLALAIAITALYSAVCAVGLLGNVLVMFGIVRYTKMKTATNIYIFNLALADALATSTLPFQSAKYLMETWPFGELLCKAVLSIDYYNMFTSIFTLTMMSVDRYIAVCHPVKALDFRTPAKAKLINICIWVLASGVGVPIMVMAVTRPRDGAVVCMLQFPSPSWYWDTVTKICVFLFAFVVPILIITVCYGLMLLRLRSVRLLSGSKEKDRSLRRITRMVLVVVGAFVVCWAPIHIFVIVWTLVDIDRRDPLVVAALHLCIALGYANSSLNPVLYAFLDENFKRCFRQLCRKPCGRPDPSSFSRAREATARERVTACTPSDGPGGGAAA
# Method in brief: as §1
# [2] = target: T11, Human melanin-concentrating hormone (MCH1) (Homo sapiens, UniProt Q99705); experiment: Radioligand binding, human melanin-concentrating hormone MCH1 membranes, FlashPlate, [125I]-S36057; conditions: compound at 10 μM; [125I]-S36057, FlashPlate
# T11 construct: purchased Perkin Elmer Biosignal
# T11 sequence (Q99705 whole entry): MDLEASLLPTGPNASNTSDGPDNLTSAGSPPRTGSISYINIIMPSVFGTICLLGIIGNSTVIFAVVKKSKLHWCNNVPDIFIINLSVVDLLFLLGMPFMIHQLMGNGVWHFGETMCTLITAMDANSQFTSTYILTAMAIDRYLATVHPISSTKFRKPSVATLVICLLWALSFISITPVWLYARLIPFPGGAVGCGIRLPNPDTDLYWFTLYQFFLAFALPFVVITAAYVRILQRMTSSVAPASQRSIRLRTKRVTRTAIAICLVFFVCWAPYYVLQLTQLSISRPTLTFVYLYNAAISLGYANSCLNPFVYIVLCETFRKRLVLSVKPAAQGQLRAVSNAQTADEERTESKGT
# Method in brief: as §1
# T1 sequence (P41968 whole entry): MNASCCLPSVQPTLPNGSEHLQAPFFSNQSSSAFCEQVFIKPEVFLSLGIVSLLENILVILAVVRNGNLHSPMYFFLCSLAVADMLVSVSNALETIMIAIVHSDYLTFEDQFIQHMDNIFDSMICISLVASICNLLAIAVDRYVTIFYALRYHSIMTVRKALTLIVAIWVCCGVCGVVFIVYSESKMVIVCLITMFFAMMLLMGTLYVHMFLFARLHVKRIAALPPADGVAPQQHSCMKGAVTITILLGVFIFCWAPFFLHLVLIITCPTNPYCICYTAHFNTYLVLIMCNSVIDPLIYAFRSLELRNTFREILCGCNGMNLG
Compound,A3: inhibition of radioligand binding (Human Melanocortin (MC3)),A10: inhibition of radioligand binding (Human opioid (ORL1)),A2: inhibition of radioligand binding (Human κ-Opioid (KOP)),A9: inhibition of radioligand binding [1],A4: inhibition of radioligand binding (Human Melanocortin (MC4)),A5: inhibition of radioligand binding (Human melanocortin (MC5)),A11: inhibition of radioligand binding (Mouse urotensin (mUR2)),A8: inhibition of radioligand binding (Human neurokinin (NK1)),A7: inhibition of radioligand binding (Human μ-opioid (MOP)),A1: inhibition of radioligand binding (Human δ-opioid (DOP)),A6: inhibition of radioligand binding [2]
CSC1OC(COCc2ccc3ccccc3c2)C(O)C(OCc2ccccc2)C1NC(=O)CCNC(=N)N (stereo not drawn) [compound 262],− (“−” indicates less than 50% inhibition at 10 μM),− (“−” indicates less than 50% inhibition at 10 μM),− (“−” indicates less than 50% inhibition at 10 μM),− (“−” indicates less than 50% inhibition at 10 μM),− (“−” indicates less than 50% inhibition at 10 μM),+ (“+” indicates greater than 50% inhibition at 10 μM),− (“−” indicates less than 50% inhibition at 10 μM),+ (“+” indicates greater than 50% inhibition at 10 μM),− (“−” indicates less than 50% inhibition at 10 μM),− (“−” indicates less than 50% inhibition at 10 μM),− (“−” indicates less than 50% inhibition at 10 μM)
CSC1OC(COCc2ccc3ccccc3c2)C(O)C(OCc2ccccc2)C1NC(=O)CCCN (stereo not drawn) [compound 263],− (“−” indicates less than 50% inhibition at 10 μM),− (“−” indicates less than 50% inhibition at 10 μM),− (“−” indicates less than 50% inhibition at 10 μM),− (“−” indicates less than 50% inhibition at 10 μM),− (“−” indicates less than 50% inhibition at 10 μM),− (“−” indicates less than 50% inhibition at 10 μM),− (“−” indicates less than 50% inhibition at 10 μM),+ (“+” indicates greater than 50% inhibition at 10 μM),− (“−” indicates less than 50% inhibition at 10 μM),− (“−” indicates less than 50% inhibition at 10 μM),− (“−” indicates less than 50% inhibition at 10 μM)
CSC1OC(COCc2ccc3ccccc3c2)C(O)C(OCc2ccccc2)C1NC(=O)CCCNC(=N)N (stereo not drawn) [compound 264],− (“−” indicates less than 50% inhibition at 10 μM),− (“−” indicates less than 50% inhibition at 10 μM),− (“−” indicates less than 50% inhibition at 10 μM),− (“−” indicates less than 50% inhibition at 10 μM),− (“−” indicates less than 50% inhibition at 10 μM),− (“−” indicates less than 50% inhibition at 10 μM),− (“−” indicates less than 50% inhibition at 10 μM),+ (“+” indicates greater than 50% inhibition at 10 μM),− (“−” indicates less than 50% inhibition at 10 μM),− (“−” indicates less than 50% inhibition at 10 μM),− (“−” indicates less than 50% inhibition at 10 μM)
CSC1OC(COCc2ccccc2)C(O)C(OCc2ccc(Cl)cc2)C1NC(=O)CNC(=N)N (stereo not drawn) [compound 265],− (“−” indicates less than 50% inhibition at 10 μM),− (“−” indicates less than 50% inhibition at 10 μM),− (“−” indicates less than 50% inhibition at 10 μM),− (“−” indicates less than 50% inhibition at 10 μM),+ (“+” indicates greater than 50% inhibition at 10 μM),− (“−” indicates less than 50% inhibition at 10 μM),− (“−” indicates less than 50% inhibition at 10 μM),+ (“+” indicates greater than 50% inhibition at 10 μM),− (“−” indicates less than 50% inhibition at 10 μM),− (“−” indicates less than 50% inhibition at 10 μM),− (“−” indicates less than 50% inhibition at 10 μM)
CSC1OC(COCc2ccccc2)C(O)C(OCc2ccc(Cl)cc2)C1NC(=O)CCN (stereo not drawn) [compound 266],− (“−” indicates less than 50% inhibition at 10 μM),− (“−” indicates less than 50% inhibition at 10 μM),− (“−” indicates less than 50% inhibition at 10 μM),− (“−” indicates less than 50% inhibition at 10 μM),− (“−” indicates less than 50% inhibition at 10 μM),− (“−” indicates less than 50% inhibition at 10 μM),− (“−” indicates less than 50% inhibition at 10 μM),+ (“+” indicates greater than 50% inhibition at 10 μM),− (“−” indicates less than 50% inhibition at 10 μM),− (“−” indicates less than 50% inhibition at 10 μM),− (“−” indicates less than 50% inhibition at 10 μM)
CSC1OC(COCc2ccccc2)C(O)C(OCc2ccc(Cl)cc2)C1NC(=O)CCNC(=N)N (stereo not drawn) [compound 267],− (“−” indicates less than 50% inhibition at 10 μM),− (“−” indicates less than 50% inhibition at 10 μM),− (“−” indicates less than 50% inhibition at 10 μM),− (“−” indicates less than 50% inhibition at 10 μM),+ (“+” indicates greater than 50% inhibition at 10 μM),− (“−” indicates less than 50% inhibition at 10 μM),− (“−” indicates less than 50% inhibition at 10 μM),+ (“+” indicates greater than 50% inhibition at 10 μM),− (“−” indicates less than 50% inhibition at 10 μM),− (“−” indicates less than 50% inhibition at 10 μM),− (“−” indicates less than 50% inhibition at 10 μM)
